Test results published in the supplement of paper PMC11451515.

Tested on: SEM cells
Experiment: cell viability relative to DMSO control; higher = less cytotoxic
Settings: 48 h
How it was run: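 Viability is expressed as a percentage of DMSO wells within each plate, and cell-free wells serve as background. Seeding densities in the 1536-well plates (5 μl) were 500 cells/well for NOMO1 or SEM leukemia cells and 1000 cells/well for P12-Ichikawa. Each line was adapted for at least four passages in each medium. Library compounds in DMSO were pin-dosed at 47 μM to 0.79 nM (11 points, threefold), and CellTiter-Glo One luminescence was read after 48 h at 37°C.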

[1] = HPLM + 10% dialyzed FBS, 0.000781 µM
[2] = HPLM + 10% dialyzed FBS, 0.00234 µM
[3] = HPLM + 10% dialyzed FBS, 0.00702 µM
[4] = HPLM + 10% dialyzed FBS, 0.0211 µM
[5] = HPLM + 10% dialyzed FBS, 0.0632 µM
[6] = HPLM + 10% dialyzed FBS, 0.19 µM
[7] = HPLM + 10% dialyzed FBS, 0.569 µM
[8] = HPLM + 10% dialyzed FBS, 1.71 µM
[9] = HPLM + 10% dialyzed FBS, 5.12 µM
[10] = HPLM + 10% dialyzed FBS, 15.4 µM
[11] = HPLM + 10% dialyzed FBS, 46.1 µM
[12] = RPMI 5 mM glucose + 10% FBS, 0.000781 µM
[13] = RPMI 5 mM glucose + 10% FBS, 0.00234 µM
[14] = RPMI 5 mM glucose + 10% FBS, 0.00702 µM
[15] = RPMI 5 mM glucose + 10% FBS, 0.0211 µM
[16] = RPMI 5 mM glucose + 10% FBS, 0.0632 µM
[17] = RPMI 5 mM glucose + 10% FBS, 0.19 µM
[18] = RPMI 5 mM glucose + 10% FBS, 0.569 µM
[19] = RPMI 5 mM glucose + 10% FBS, 1.71 µM
[20] = RPMI 5 mM glucose + 10% FBS, 5.12 µM
[21] = RPMI 5 mM glucose + 10% FBS, 15.4 µM
[22] = RPMI 5 mM glucose + 10% FBS, 46.1 µM
[23] = RPMI 5 mM glucose + 10% dialyzed FBS, 0.000781 µM
[24] = RPMI 5 mM glucose + 10% dialyzed FBS, 0.00234 µM
[25] = RPMI 5 mM glucose + 10% dialyzed FBS, 0.00702 µM
[26] = RPMI 5 mM glucose + 10% dialyzed FBS, 0.0211 µM
[27] = RPMI 5 mM glucose + 10% dialyzed FBS, 0.0632 µM
[28] = RPMI 5 mM glucose + 10% dialyzed FBS, 0.19 µM
[29] = RPMI 5 mM glucose + 10% dialyzed FBS, 0.569 µM
[30] = RPMI 5 mM glucose + 10% dialyzed FBS, 1.71 µM
[31] = RPMI 5 mM glucose + 10% dialyzed FBS, 5.12 µM
[32] = RPMI 5 mM glucose + 10% dialyzed FBS, 15.4 µM
[33] = RPMI 5 mM glucose + 10% dialyzed FBS, 46.1 µM

| SMILES | cell viability [1] [%] | cell viability [2] [%] | cell viability [3] [%] | cell viability [4] [%] | cell viability [5] [%] | cell viability [6] [%] | cell viability [7] [%] | cell viability [8] [%] | cell viability [9] [%] | cell viability [10] [%] | cell viability [11] [%] | cell viability [12] [%] | cell viability [13] [%] | cell viability [14] [%] | cell viability [15] [%] | cell viability [16] [%] | cell viability [17] [%] | cell viability [18] [%] | cell viability [19] [%] | cell viability [20] [%] | cell viability [21] [%] | cell viability [22] [%] | cell viability [23] [%] | cell viability [24] [%] | cell viability [25] [%] | cell viability [26] [%] | cell viability [27] [%] | cell viability [28] [%] | cell viability [29] [%] | cell viability [30] [%] | cell viability [31] [%] | cell viability [32] [%] | cell viability [33] [%] |
| --- | --- | --- | --- | --- | --- | --- | --- | --- | --- | --- | --- | --- | --- | --- | --- | --- | --- | --- | --- | --- | --- | --- | --- | --- | --- | --- | --- | --- | --- | --- | --- | --- | --- |
| C[C@]12C[C@H](O)[C@H]3[C@@H](CC\C4=C\C(=O)\C=C/[C@]34C)[C@@H]1CC[C@]2(O)C(=O)CO | 113 | 112 | 119 | 118 | 129 | 118 | 98.6 | 102 | 44.8 | 67.2 | 22.6 | 118 | 115 | 114 | 143 | 123 | 127 | 107 | 90.1 | 40.9 | 64.9 | 19.6 |  |  |  |  |  |  |  |  |  |  |  |
| CCN(CC)CC#CCOC(=O)C(O)(c1ccccc1)C1CCCCC1 (stereo not given) | 108 | 109 | 98.1 | 92.4 | 115 | 111 | 124 | 121 | 105 | 129 | 98.5 | 108 | 117 | 126 | 80 | 115 | 121 | 118 | 120 | 125 | 104 | 102 | 117 | 112 | 145 | 83.3 | 126 | 132 | 142 | 120 | 135 | 129 | 99.3 |
| NC[C@H]1CC[C@H](C(=O)O)CC1 | 58.2 | 128 | 113 | 111 | 119 | 131 | 123 | 124 | 113 | 111 | 104 |  |  |  |  |  |  |  |  |  |  |  | 56.4 | 110 | 106 | 126 | 106 | 104 | 99.9 | 116 | 99.7 | 102 | 92.7 |
| C[C@]12CC[C@@H]3c4ccc(OC(=O)N(CCCl)CCCl)cc4CC[C@H]3[C@@H]1CC[C@@H]2OP(=O)([O-])[O-].[Na+].[Na+] | 107 | 107 | 120 | 109 | 106 | 105 | 104 | 108 | 66.8 | 62.5 | 63.2 | 101 | 118 | 120 | 99.2 | 118 | 115 | 87.9 | 90.5 | 68.1 | 65.4 | 27.5 | 111 | 112 | 102 | 85.3 | 110 | 93.9 | 83.4 | 76.3 | 67.5 | 65.3 | 54.9 |
| CC1=NN(c2ccc(C)c(C)c2)C(=O)/C1=N/Nc1cccc(-c2cccc(C(=O)O)c2)c1O | 121 | 119 | 125 | 128 | 111 | 117 | 120 | 119 | 109 | 97.6 | 75.3 | 124 | 122 | 128 | 130 | 129 | 122 | 123 | 122 | 121 | 90.4 | 54.7 |  |  |  |  |  |  |  |  |  |  |  |
| COc1ccc(Cc2ccc(NC(N)=O)cc2)cc1-c1cccc(Cl)c1 | 106 | 104 | 110 | 95.4 | 122 | 123 | 106 | 119 | 120 | 122 | 106 | 100 | 102 | 101 | 117 | 110 | 113 | 113 | 115 | 113 | 115 | 103 | 107 | 111 | 113 | 123 | 124 | 122 | 108 | 111 | 120 | 108 | 87.3 |
